The values that follow are results of earlier work, collected in US8551975B1, “Hyaluronic acid in soft gel form” (Soft Gel Technologies, Inc., priority 2001, dated 2013).

For Hyaluronic Acid [HA], the “half-life in the epidermis” value (epidermis, endogenous HA) is given as “less than one day”. Under “normally, endogenous HA synthesized and catabolized in tissues”, the “half-life of an HA molecule” value was 2-3 weeks.
